Measured values reported in ChEMBL document CHEMBL1250491, “Multivariate QSAR study on the antimutagenic activity of flavonoids against 3-NFA on Salmonella typhimurium TA98” (2010).

Each compound was assayed on Salmonella typhimurium (assay: Antimutagenic activity in Salmonella Typhimurium TA98 assessed as inhibition of 3-nitrofluoranthene-induced mutation by Ames test).
Type: functional, Salmonella enterica subsp. enterica serovar Typhimurium

Point of comparison: O=c1cc(-c2ccc(O)cc2)oc2cc(O)cc(O)c12 [APIGENIN], pID50 7. Against it:
- COc1ccccc1-c1cc(=O)c2ccccc2o1 — lower, 5.046
- COc1ccc2oc(-c3ccccc3)c(O)c(=O)c2c1 — lower, 5.62
- O=c1cc(-c2ccccc2)oc2cccc(O)c12 [5-HYDROXYFLAVONE] — lower, 5.357
- O=c1cc(-c2ccccc2)oc2ccc(O)cc12 [6-HYDROXYFLAVONE] — lower, 6.699
- O=c1cc(-c2ccccc2)oc2cc(O)ccc12 [7-HYDROXYFLAVONE] — lower, 5.456
- O=c1cc(-c2ccc(O)cc2)oc2cc(O[C@@H]3O[C@H](CO)[C@@H](O)[C@H](O)[C@H]3O)cc(O)c12 [APIGETRIN] — lower, 5.62
- O=c1cc(-c2ccccc2)oc2cc(O)cc(O)c12 [CHRYSIN] — lower, 6
- O=c1c(O)c(-c2ccccc2)oc2ccccc12 [FLAVONOL] — lower, 6.538
- O=c1cc(-c2ccc(O)c(O)c2)oc2cc(O[C@@H]3O[C@H](CO)[C@@H](O)[C@H](O)[C@H]3O)cc(O)c12 [GALUTEOLIN] — lower, 5.092
- COc1ccc([C@@H]2CC(=O)c3c(O)cc(O)cc3O2)cc1O [HESPERETIN] — lower, 6.097
- COc1cc(-c2oc3cc(O)cc(O)c3c(=O)c2O)ccc1O [ISORHAMNETIN] — lower, 6.097
- O=c1c(O)c(-c2ccc(O)cc2)oc2cc(O)cc(O)c12 [KAEMPFEROL] — lower, 6.538
- O=c1c(O)c(-c2ccc(O)cc2O)oc2cc(O)cc(O)c12 [MORIN] — lower, 6.155
- O=c1c(O)c(-c2cc(O)c(O)c(O)c2)oc2cc(O)cc(O)c12 [MYRICETIN] — lower, 6.222
- O=C1C[C@@H](c2ccc(O)cc2)Oc2cc(O)cc(O)c21 [NARINGENIN] — lower, 5.886
- O=c1c(O)c(-c2ccc(O)c(O)c2)oc2cc(O)cc(O)c12 [QUERCETIN] — lower, 5.143
- C[C@@H]1O[C@@H](OC[C@H]2O[C@@H](Oc3c(-c4ccc(O)c(O)c4)oc4cc(O)cc(O)c4c3=O)[C@H](O)[C@@H](O)[C@@H]2O)[C@H](O)[C@H](O)[C@H]1O [RUTIN] — lower, 5.022
- COc1ccc(-c2cc(=O)c3c(OC)c(OC)c(OC)c(OC)c3o2)cc1 [TANGERETIN] — lower, 4.967
